According to paper PMC2860993 (PLoS ONE, 2010):
Where two headings read alike, the source gives them in different places.

Assays:
[1] = test system: recombinant luciferase-expressing CMV (Towne); experiment: microbe, parasite or virus in culture; format: cell-based, human CMV; conditions: for Selectivity index (SI): ratio between CC50 and EC50
Description: (§1) Human Foreskin Fibroblasts (HFF) passage 12–16 and human lung fibroblasts (HEL) passage 8–12 (from ATCC) were maintained in DMEM containing 10% fetal bovine serum and used for infections with the viruses.
The CMV strains used for infections were the highly-passaged Towne virus, and a clinical isolate obtained from the urine of a neonate with congenital CMV infection (SB) and passaged once in tissue culture. […] Initial experiments were performed using a recombinant human CMV-green fluorescent protein (GFP) virus, derived from Towne strain. This virus has a 9-kb deletion from the dispensable unique short (US) region from US1 to US12, and instead contains the bacterial artificial chromosome sequences and a GFP expression cassette. […] A recombinant virus expressing luciferase reporter gene under the control of UL99 (pp28) late promoter was generated by insertion of the reporter gene between the US9 and US10 ORFs in the Towne genome.
Towne-GFP, Towne–luciferase, and SB viruses were used in these assays. HFF or HEL were grown to subconfluent monolayers and infected with the CMV viruses at MOI 0.1 to 3. […] The concentration of each compound was calculated and adjusted by volume such that it was constant throughout the experiment. Following 90 minute incubation, media was replaced with fresh media containing the drug used. Infected and treated cells were incubated at 37°C in a 5% CO2 atmosphere for 3–10 days depending on the virus and the anti-viral assay. The recombinant luciferase-expressing virus was incubated for 72 hours, the GFP virus was incubated for 5 days, and the clinical isolate for 10 days. All experiments were subsequently repeated with compounds added to wells just after viral inoculation.

[2] = Cellular cytotoxicity, CellTiter-Glo Luminescent Cell Viability Assay; format: cell-based; conditions: human
Description: as §1, with “viruses. Cells in concentrations of 5×10^4 and 1×10^4 were seeded 24 hours prior to infection on each well of 24-and 96-well plates respectively.” for “viruses.”

Toxoplasmosis = experiment: Anti-toxoplasmosis activity of compounds in supernatants of CMV infected cells; format: cell-based, Toxoplasma gondii; conditions: Human betaherpesvirus 5; supernatants of CMV infected cells at 3–5 days post infection
Excerpt: To confirm that the difference in anti-CMV activity between monomers and dimers was not a result of instability of the monomers in tissue culture, we determined the anti-toxoplasmosis activity of these compounds in the supernatants of CMV infected cells at 3–5 days post infection.

[3] = test system: CMV IE1 protein expression; experiment: Western blot for CMV immediate early protein IE1; format: cell-based, human CMV; conditions: for expression of IE1 and GFP: 100 µM, Towne-GFP, HFF, day 5 post infection; for IE1 expression: SB clinical isolate
Description: Monoclonal antibodies to CMV immediate early proteins IE-1 and IE-2 (MAb810) and to cellular β-actin were purchased from Millipore (Billerica, MA). Confluent cells were infected with CMV in the presence of artemisinin compounds. At the indicated times cells were harvested in sample buffer (RIPA buffer, Tris 50 mM, Nacl 150 mM, SDS 0.1%, Na Deoxycholate 0.5%, NP40 1%, and protease inhibitor cocktail), boiled and loaded onto SDS-PAGE. Proteins were separated by electrophoresis and transferred to nitrocellulose membrane. After blocking, blots were probed with primary antibody (1∶3,000) overnight at 4°C in phosphate-buffered saline, and Tween. After washing 3 times, blots were probed with HRP-conjugated anti-mouse (Sigma), 1∶5,000 for 1 hour at room temperature. Blots were washed three times in phosphate-buffered saline/Tween, and then developed by enhanced chemiluminescence according to manufacturer protocol.
The expression of CMV immediate early (IE) protein was tested by western blot to determine whether artemisinins' inhibition of CMV replication occurs early in the virus life cycle. […] Further evidence for the early effect of artemisinins on IE1 protein expression was obtained with the clinical isolate (SB, Fig. 5b).
Western blot for IE1 and GFP performed at day 5 post infection. […] Western blot for IE1 was performed at 12 hr (MOI = 3), 24 hr and 48 hr (MOI = 1) post infection.

CMV clinical isolates = test system: CMV clinical isolates; design: method as in PMID 11976732; conditions: 11.1 µM ref 19; cited from earlier work
[4] = test system: recombinant luciferase-expressing CMV; experiment: Plaque reduction assay in human embryonic lung cells; format: cell-based, human CMV; conditions: 10 µM; HEL cells; luciferase virus; 10 days
Description: For plaque reduction assay, human embryonic lung cells were seeded into six-well plates and incubated at 37°C one day prior to infection with the recombinant luciferase-expressing CMV. Serial dilutions of GCV, artesunate and artefanilide were used. The virus was diluted to a desired concentration which gave 50–60 plaques per well. Medium was aspirated from the wells, and 0.2 ml of virus suspension was added to each well in triplicates. Plates were incubated for 90 minutes with shaking every 10 min, thereafter drugs were added and a methylcellulose overlay applied to each well. After incubation for 10 days, cells were stained with crystal violet. The stain was aspirated, wells were washed with phosphate-buffered saline, and plaques were counted.

[5] = Human betaherpesvirus 5, read-out: EC50 (µM) - CMV
[6] = drug concentration that leads to 50% cellular cytotoxicity, mean and SD, at least five independent experiments, read-out: CC50

SMILES	EC50 ([1]; Human betaherpesvirus 5, 72 h)	Selectivity index (SI) [1]	CC50 [2]	EC50 (Toxoplasmosis)	EC50 [1, 5]	expression of IE1 and GFP ([3]; MOI of 0.1)	expression of IE1 and GFP ([3]; MOI of 0.5)	CC50 [2, 6]	in-vitro inhibition of clinical isolates (CMV clinical isolates)	IE1 expression ([3]; 1 µM, MOI = 1, 24 and 48 hr)	IE1 expression ([3]; 1 µM, MOI = 3, 12 hours post infection)	selectivity relative to GCV ([1]; comparison of SI, Table 1)	reduction in plaque formation [4]	IE1 expression ([3]; 10 µM, MOI = 1, 24 and 48 hr)
C[C@H]1[C@@H](CCC(=O)Nc2ccc(F)cc2)O[C@@H]2O[C@@]3(C)CC[C@H]4[C@H](C)CC[C@@H]1[C@@]24OO3 [Artefanilide (3), artefanilide]	8.1 ± 2.2 µM	5.5±1.6	44.9 ± 3.4 µM											
CO[C@H]1O[C@@H]2O[C@@]3(C)CC[C@H]4[C@H](C)CC[C@@H]([C@H]1C)[C@@]24OO3 [Artemether (2c), artemether]	5.3 ± 2.7 µM	3.5±2.2	18.4 ± 7.5 µM	0.58 ± 0.22 µM	5.1 ± 2.1 µM									
C[C@@H]1CC[C@H]2[C@@H](C)C(=O)O[C@@H]3O[C@@]4(C)CC[C@@H]1[C@]32OO4 [Artemisinin (1), artemisinin]	16.8 ± 4 µM			4.1 ± 1.1 µM	15.7 ± 4.5 µM	undetectable	decreased	72.4 ± 15.7 µM						
C[C@H]1[C@H](OC(=O)CCC(=O)O)O[C@@H]2O[C@@]3(C)CC[C@H]4[C@H](C)CC[C@@H]1[C@@]24OO3 [Artesunate (2d), artesunate]	18.5 ± 5.2 µM	4.2±2.2		3.2 ± 0.8 µM	17.2 ± 3.4 µM			77.5 ± 14.4 µM	50–80%					
C[C@H]1[C@@H](CC(CO)C[C@H]2O[C@@H]3O[C@@]4(C)CC[C@H]5[C@H](C)CC[C@@H]([C@H]2C)[C@@]35OO4)O[C@@H]2O[C@@]3(C)CC[C@H]4[C@H](C)CC[C@@H]1[C@@]24OO3 (some centres unmarked) [Dimer primary alcohol (4), dimer primary alcohol]	0.15 ± 0.02 µM	380±53	57 ± 2.3 µM	0.4 ± 0.15 µM	0.16 ± 0.04 µM					significantly reduced	inhibition of IE1 expression			
C[C@H]1[C@@H](CC(C[C@H]2O[C@@H]3O[C@@]4(C)CC[C@H]5[C@H](C)CC[C@@H]([C@H]2C)[C@@]35OO4)CS(=O)(=O)c2ccc(COC(=O)N(C)C)cc2)O[C@@H]2O[C@@]3(C)CC[C@H]4[C@H](C)CC[C@@H]1[C@@]24OO3 (some centres unmarked) [Dimer sulfone carbamate (6), dimer sulfone dimethyl carbamate]	0.06 µM	508±173	28.1 ± 9.6 µM									approximately 10 times		
Nc1nc(O)c2ncn(COC(CO)CO)c2n1 [GCV, Ganciclovir]	5.6 ± 0.2 µM							247 ± 33.4 µM					80%	not affected
